Reference: patent US10081615B2, “Sulfamate derivative compounds for use in treating or alleviating pain” (Bio-Pharm Solutions Co., Ltd., priority 2013, dated 2018)

Experiments:
[1] = system: hot plate withdrawal latency; experiment: Hot-plate test; assay type: in vivo, ICR mice; conditions: mouse, oral
Description: To examine the pain relief effect of the sulfamate derivative compounds, a hot-plate test was conducted referring to Current Protocols in Neuroscience; Behavioral Neuroscience Unit 8.9.
ICR mice (male, 30-35 g; Orient Bio, Korea) were habituated before the test in the test room for 1 hour. Animals were fasted 2 hr before administration of the compounds. […] All compounds were dissolved in a vehicle of 30% (v/v) PEG 400 or 20% (v/v) Tween 80. The control group was treated with vehicle without treatment compounds.
0.5 hr after the administration of compounds, the mice were put on a hot plate pre-heated to 55±1° C. (Hu, X. et al, 2008), and then, the withdrawal latency was measured (cut-off time: 30 sec) until the point when each mouse was taking a paw off from the plate, shaking, licking a paw or hind leg, or jumping from the plate.

[2] = system: Vincristine-induced pain model; experiment: Antiallodynic activity in the vincristine-induced pain model (von Frey); assay type: in vivo, Sprague-Dawley rats; conditions: rat, intraperitoneal, 0.5 h; for ED50: ip
Description: Male, Sprague-Dawley rats (300-320 g, Nara Bio, Korea) were habituated for 1 week before surgery and allowed free access to food and water throughout the experimentation. Room temperature and humidity were maintained at 24±2° C. and 50±10%, respectively.
The vincristine-induced pain model was established by the procedure of Natsuko et al. (2001) with minor modifications. Vincristine was intravenously infused continuously for 14 days using a mini-osmotic pump as follows: Vincristine sulfate solution (Hospira, Australia) was diluted with 0.9% saline to a final dose of 30 ug/kg. The pumps (Alzet Model 2002, USA) were filled with the vincristine solution and primed by incubation at 37° C. for 4 h before the infusion. Briefly, animals were put under gaseous anesthesia with isoflurane and NO with a 4:4 flow ratio. A catheter made from PE-60 tubing was inserted into an external jugular vein in the rat. Sham controls were prepared in the same manner, with the external jugular vein exposed, but not cut down. Preparation of the vehicle controls were identical to the group treated with compound, except for administration of vehicles without compound in the vehicle control group.
Tactile sensitivity (mechanical allodynia) was evaluated using von Frey monofilaments before and after treatment, and the animals were included in the study only if the withdrawal threshold value was less than 4 g. One week after surgery, vincristine-infused animals (n=6), sham-operated animals (n=12) and vehicle-operated (n=18) animals were tested for tactile sensitivity with von Frey monofilaments with 3 trials in each animal. All animals were placed in a stainless steel mesh chamber and habituated for 30 min in the test cage. The tactile sensitivity for the ipsilateral hind paw was measured using the up-and-down method (Dixon, 1980) with seven von Frey monofilaments (0.4, 1, 2, 4, 6, 8, and 15 g) in 3 trials. The tactile sensitivity test was followed by Dixon's method. The 50% paw withdrawal threshold for each paw was calculated using the following formula: [Xth] log=[vFr] log+ky where [vFr] is the force of the last von Frey used, k=0.2249 which is the average interval (in log units) between the von Frey monofilaments, and y is a value that depends upon the pattern of withdrawal responses (Dixon, 1980).
[…] The test was performed at the peak time of efficacy (0.5 hr) after compound administration.
The relative values compared to the sham (% control) were calculated and are shown in Table 11, which show an antiallodynic effect of the compound of examples in the vincristine-induced pain model in rats.

Which ED50 ([1]; 0.5 h) does the source give for CC1(C)Oc2ccccc2[C@@H](COS(N)(=O)=O)O1 [Example 2, ((S)-2,2-dimethyl-4H-benzo[d][1,3]dioxin-4-yl)methyl sulfamate] here?
The ED50 was 170 mg/kg.

For CC1(C)Oc2ccccc2[C@H](COS([NH-])(=O)=O)O1.[Na+] [Example 58, Sodium (R)-(((2,2-dimethyl-4H-benzo[d][1,3]dioxin-4-yl)methoxy)sulfonyl)amide Trihydrate], which ED50 [2] is on record?
The ED50 was 6.2 mg/kg.

Which results are given for CC1(C)Oc2ccccc2C(COS([NH-])(=O)=O)O1.[Na+] (stereo not shown) [Example 60, Sodium (((2,2-dimethyl-4H-benzo[d][1,3]dioxin-4-yl)methoxy)sulfonyl)amide Trihydrate]?
Hot plate test: effect (%) compared to control ([1]; 170 mg/kg administered, time not given): (196.2%); ED50 [2]: 2.4 mg/kg

With [NH-]S(=O)(=O)OC[C@H]1OC2(CCCC2)Oc2ccccc21.[Na+] [Example 65, Sodium (S)-(((4H-spiro[benzo[d][1,3]dioxine-2,1′-cyclopentan]-4-yl)methoxy)sulfonyl)amide] as the molecule, how does the ED50 [2] read?
The ED50 was 8.2 mg/kg.

And the melting point?
The melting point was 121.2 to 131.9 °C.

With CC1(C)Oc2ccccc2[C@H](COS([NH-])(=O)=O)O1.[K+] [Example 70, Potassium (R)-(((2,2-dimethyl-4H-benzo[d][1,3]dioxin-4-yl)methoxy)sulfonyl)amide] as the molecule, how does the “Vincristine model: effect (%) compared to control” value ([2]; 2.4 mg/kg administered) read?
Its value is “(36.2%, 0.5 h)”.
